# Test results published in PubChem BioAssay (NCI).
#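 Following 48 hours of exposure in 96-well plates, responses at five concentrations were used to interpolate endpoints linearly. TGI: total growth inhibition.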
# Tests used:
# Experiment in all cases: inhibition of tumour cell growth, NCI panel, 48 h
# [1] = tested on: UACC-257 melanoma
# [2] = tested on: MDA-MB-231 breast
# [3] = tested on: HOP-62 NSCLC
# [4] = tested on: 786-0 renal
# [5] = tested on: MDA-N
# [6] = tested on: SF-539 CNS
# [7] = tested on: OVCAR-8 ovarian
# [8] = tested on: EKVX NSCLC
# [9] = tested on: UACC-62 melanoma
# [10] = tested on: HT29 colon
# [11] = tested on: SK-MEL-2 melanoma
# [12] = tested on: MCF7 breast
# [13] = tested on: OVCAR-3 ovarian
# [14] = tested on: U251 CNS
# [15] = tested on: MDA-MB-435
# [16] = tested on: OVCAR-4 ovarian
# [17] = tested on: SK-MEL-28 melanoma
# [18] = tested on: SR leukemia
# [19] = tested on: NCI-H460 lung
# [20] = tested on: NCI-H522 lung
# [21] = tested on: TK-10 renal
# [22] = tested on: SK-MEL-5 melanoma
# [23] = tested on: LOX IMVI melanoma
# [24] = tested on: SN12C renal
# [25] = tested on: M14 melanoma
# [26] = tested on: HCC-2998 colon
# [27] = tested on: OVCAR-5 ovarian
# [28] = tested on: HS 578T breast
# [29] = tested on: NCI-H23 lung
# [30] = tested on: KM12 colon
# [31] = tested on: COLO 205 colon
# [32] = tested on: CAKI-1 renal
# [33] = tested on: K-562 leukemia
# [34] = tested on: HOP-92 NSCLC
# [35] = tested on: NCI-H226 lung
# [36] = tested on: A549 NSCLC
# [37] = tested on: A498 renal
# [38] = tested on: T-47D breast
# [39] = tested on: BT-549 breast
# [40] = tested on: SK-OV-3 ovarian
# [41] = tested on: PC-3 prostate
# [42] = tested on: SF-295 CNS
# [43] = tested on: NCI/ADR-RES ovarian
# [44] = tested on: SNB-75 CNS
# [45] = tested on: SF-268 CNS
# [46] = tested on: RXF 393 renal
# [47] = tested on: HCT-116 colon
# [48] = tested on: HCT-15 colon
# [49] = tested on: CCRF-CEM leukemia
# [50] = tested on: SW-620 colon
# [51] = tested on: UO-31 renal
# [52] = tested on: DU-145 prostate
# [53] = tested on: ACHN renal
# [54] = tested on: MOLT-4 leukemia
# [55] = tested on: IGROV1 ovarian
# [56] = tested on: MALME-3M melanoma
# [57] = tested on: HL-60(TB) leukemia
smiles,measurement,setting,value
Cc1c[nH]c(C(=O)O)c1-c1ccc2c(-c3ccccc3)nc3ccccc3n12,TGI,[1],> 100 µM
same,TGI,[2],95 µM
same,TGI,[3],46.4 µM
same,TGI,[4],> 100 µM
same,TGI,[5],48.4 µM
same,TGI,[6],49.3 µM
same,TGI,[7],> 100 µM
same,TGI,[8],> 100 µM
same,TGI,[9],42.5 µM
same,TGI,[10],70.5 µM
same,TGI,[11],55.1 µM
same,TGI,[12],> 100 µM
same,TGI,[13],37.4 µM
same,TGI,[14],> 100 µM
same,TGI,[15],78.1 µM
same,TGI,[16],> 100 µM
same,TGI,[17],76.3 µM
same,TGI,[18],66.2 µM
same,TGI,[19],> 100 µM
same,TGI,[20],60.6 µM
same,TGI,[21],> 100 µM
same,TGI,[22],> 100 µM
same,TGI,[23],63 µM
same,TGI,[24],> 100 µM
same,TGI,[25],> 100 µM
same,TGI,[26],56.9 µM
same,TGI,[27],> 100 µM
same,TGI,[28],67.3 µM
same,TGI,[29],> 100 µM
same,TGI,[30],56.8 µM
same,TGI,[31],> 100 µM
same,TGI,[32],> 100 µM
same,TGI,[33],> 100 µM
same,TGI,[34],> 100 µM
same,TGI,[35],57.8 µM
same,TGI,[36],> 100 µM
same,TGI,[37],28.3 µM
same,TGI,[38],> 100 µM
same,TGI,[39],> 100 µM
same,TGI,[40],> 100 µM
same,TGI,[41],> 100 µM
same,TGI,[42],71.1 µM
same,TGI,[43],48.1 µM
same,TGI,[44],56.4 µM
same,TGI,[45],> 100 µM
same,TGI,[46],55.2 µM
same,TGI,[47],> 100 µM
same,TGI,[48],94.1 µM
same,TGI,[49],> 100 µM
same,TGI,[50],> 100 µM
same,TGI,[51],> 100 µM
same,TGI,[52],> 100 µM
same,TGI,[53],> 100 µM
same,TGI,[54],94.8 µM
same,TGI,[55],77.8 µM
O=C1CC(=O)c2c(Cl)sc(Cl)c21,TGI,[1],> 100 µM
same,TGI,[2],> 100 µM
same,TGI,[3],> 100 µM
same,TGI,[4],> 100 µM
same,TGI,[5],> 100 µM
same,TGI,[6],> 100 µM
same,TGI,[7],> 100 µM
same,TGI,[8],> 100 µM
same,TGI,[9],> 100 µM
same,TGI,[10],> 100 µM
same,TGI,[11],> 100 µM
same,TGI,[12],> 100 µM
same,TGI,[13],> 100 µM
same,TGI,[56],67.2 µM
same,TGI,[14],> 100 µM
same,TGI,[15],> 100 µM
same,TGI,[16],76.3 µM
same,TGI,[17],> 100 µM
same,TGI,[18],75.2 µM
same,TGI,[19],> 100 µM
same,TGI,[20],47.1 µM
same,TGI,[21],> 100 µM
same,TGI,[22],> 100 µM
same,TGI,[23],> 100 µM
same,TGI,[24],> 100 µM
same,TGI,[25],> 100 µM
same,TGI,[27],> 100 µM
same,TGI,[28],93.9 µM
same,TGI,[29],> 100 µM
same,TGI,[30],> 100 µM
same,TGI,[57],85.6 µM
same,TGI,[31],> 100 µM
same,TGI,[32],> 100 µM
same,TGI,[33],> 100 µM
same,TGI,[34],> 100 µM
same,TGI,[35],> 100 µM
same,TGI,[36],> 100 µM
same,TGI,[37],> 100 µM
same,TGI,[38],> 100 µM
same,TGI,[39],> 100 µM
same,TGI,[40],> 100 µM
same,TGI,[42],> 100 µM
same,TGI,[43],> 100 µM
same,TGI,[44],> 100 µM
same,TGI,[45],> 100 µM
same,TGI,[46],86.2 µM
same,TGI,[47],> 100 µM
same,TGI,[48],> 100 µM
same,TGI,[49],> 100 µM
same,TGI,[50],> 100 µM
same,TGI,[51],> 100 µM
same,TGI,[52],> 100 µM
same,TGI,[53],> 100 µM
same,TGI,[54],> 100 µM
same,TGI,[55],> 100 µM
